Measurements taken from article PMC8730469 (Bioorganic & Medicinal Chemistry Letters, 2022).

Molecular target: T1, SARS-CoV-2 M^pro (Severe acute respiratory syndrome coronavirus 2, UniProt P0DTD1)
Assay: fast dilution experiment
Conditions: Fig. S1 and Table S1

Row | Structure (SMILES) | reversibility of inhibition
1 | O=C(Cn1sc2cccc(F)c2c1=O)Nc1ccccc1 [Compound 16b-3] | irreversible inhibitor

Molecular target: T1, SARS-CoV-2 M^pro
Assay: not given
Type: biochemical
Conditions: not given

Row | Structure (SMILES) | inhibitory activity (in words)
2 | O=c1[nH]sc2cc(F)ccc12 [Compound 3a] | reduced dramatically
3 | O=C(O)Cn1sc2cc(F)ccc2c1=O [Compound 13a] | reduced dramatically
4 | Nc1cccc2c(=O)n(CC(=O)Nc3ccccc3)sc12 [Compound 16b-17] | decreased the activity drastically
5 | O=C(Cn1sc2c(C(F)(F)F)cccc2c1=O)Nc1ccccc1 [Compound 16b-13] | decreased the activity drastically
6 | COc1cccc2c(=O)n(CC(=O)Nc3ccccc3)sc12 [Compound 16b-9] | decreased the activity drastically
